Results on 4 compounds are retold here after patent US10654854B2 (INTRA-CELLULAR THERAPIES, INC., priority 2016, dated 2020).

The structures appear in SMILES notation. Where a name gives a salt, the structure may show the parent alone.

The nature of data set [1]: Dynamic Vapour Sorption (DVS). Type of data set: physicochemical. The conditions noted are these: for DVS total mass uptake: at 95 RH %; for hygroscopicity (assessment from DVS): from total mass uptake at 95 RH %; for DVS Hygroscopicity (%): scale-up synthesis batch. The protocol:
Dynamic Vapour Sorption (DVS): The Dynamic Vapour Sorption studies are performed using a Surface Measurement Systems Ltd. DVS-1 No Video, equipment #2126. The sample is loaded into a balance pan, typically 20-30 mg, and equilibrated at 0% RH. After the material was dried, the RH is increased with 10% per step for 1 hour per increment, ending at 95% RH. After completion of the sorption cycle, the sample was dried using the same method. The software used for data collection is DVSWin v3.01 No Video. Data analysis is performed using DVS Standard Analysis Suite v6.3.0 (Standard).

Data set [2] can be described thus: hygroscopicity and stability of salt forms (salt screen). Type of data set: physicochemical. The conditions noted are these: salt form. The protocol: In an effort to find new salts and polymorphs of ITI-007, an extensive salt screen was undertaken. […] Eventually, a toluenesulfonic acid addition salt (tosylate) was prepared, as described in WO 2009/114181, but no other stable salts were found. Finally, a major salt screen was carried out, wherein the free base compound was studied in different solvent systems and under different conditions, and then systematically screened using a selection of over 100 acids under different conditions and with different solvent, co-solvent and anti-solvent systems, to identify possible salt forms. Following extensive screening and experimentation, the following novel salts were discovered, characterized, and found to be reproducible and stable: oxalate, 4-aminosalicylate, and cyclamate.
(§1) Solubility of free base in various solvents is evaluated, and based on the results of the solubility range, suitable solvents are selected for the salt screen. The salt screen is divided into seven separate screens, using 90 different counter ions, six different solvents, and including four different crystallization methods, slurry experiments, cooling crystallization, evaporation and precipitation experiments. The counterions are selected based upon availability and potential suitability to form pharmaceutically acceptable acid addition salts. They include the class I, II and III acids identified in Stahl P. H., Wermuch C. G. (editors), Handbook of Pharmaceutical Salts, IUPAC (2008).

A short description of data set [3]: solubility of free base in water and organic solvents. The conditions noted are these: free base form; in water and in many organic solvents. Type of data set: physicochemical. The protocol: as §1
For data set [4], the target named is H1 histaminergic (Homo sapiens, UniProt P35367). The note with it: cited from earlier work.
Chain of H1 histaminergic (P35367 whole entry): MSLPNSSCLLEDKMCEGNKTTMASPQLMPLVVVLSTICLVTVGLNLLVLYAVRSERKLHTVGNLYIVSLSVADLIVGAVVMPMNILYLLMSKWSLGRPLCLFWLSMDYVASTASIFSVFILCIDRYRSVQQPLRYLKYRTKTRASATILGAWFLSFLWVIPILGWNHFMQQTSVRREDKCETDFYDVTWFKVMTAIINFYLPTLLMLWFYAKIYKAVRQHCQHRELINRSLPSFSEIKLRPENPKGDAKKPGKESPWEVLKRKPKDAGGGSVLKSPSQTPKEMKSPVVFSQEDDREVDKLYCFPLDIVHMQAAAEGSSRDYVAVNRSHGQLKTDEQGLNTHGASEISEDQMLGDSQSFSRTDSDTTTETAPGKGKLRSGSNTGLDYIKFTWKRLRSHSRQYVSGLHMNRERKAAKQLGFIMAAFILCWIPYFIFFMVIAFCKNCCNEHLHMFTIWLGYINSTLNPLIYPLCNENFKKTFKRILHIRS
The target of data set [5] is T1, 5-HT2C (Homo sapiens, UniProt P28335).
T1 sequence (P28335 33-458): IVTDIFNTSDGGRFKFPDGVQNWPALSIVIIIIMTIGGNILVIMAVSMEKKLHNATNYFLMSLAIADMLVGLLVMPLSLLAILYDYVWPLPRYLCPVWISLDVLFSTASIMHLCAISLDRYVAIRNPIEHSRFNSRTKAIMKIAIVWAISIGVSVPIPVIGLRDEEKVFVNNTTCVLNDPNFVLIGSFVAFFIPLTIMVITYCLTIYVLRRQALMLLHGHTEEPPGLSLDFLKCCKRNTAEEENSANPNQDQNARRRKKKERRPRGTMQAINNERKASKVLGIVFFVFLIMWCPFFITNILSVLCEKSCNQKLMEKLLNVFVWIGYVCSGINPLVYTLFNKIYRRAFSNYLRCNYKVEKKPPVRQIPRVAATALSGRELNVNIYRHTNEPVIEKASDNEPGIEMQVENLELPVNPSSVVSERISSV
The note with it: cited from earlier work.

Data set [6] concerns muscarinic. The note with it: cited from earlier work.

On to `CN1CCN2c3c(cccc31)[C@@H]1CN(CCCC(=O)c3ccc(F)cc3)CC[C@@H]12` [4-aminosalicylate salt, 1-(4-fluoro-phenyl)-4-((6bR,10aS)-3-methyl-2,3,6b,9,10,10a-hexahydro-1H,7H-pyrido[3′,4′:4,5]pyrrolo[1,2,3-de]quinoxalin-8-yl)-butan-1-one], for which, in data set [1], the “DVS total mass uptake” value was found to be 5%, the “hygroscopicity (assessment from DVS)” value was “moderately hygroscopic” and the “DVS Hygroscopicity (%)” value amounted to 5%. For the same compound, the stability entry in data set [2] is reported as “stable”.
With `CN1CCN2c3c(cccc31)[C@@H]1CN(CCCC(=O)c3ccc(F)cc3)CC[C@@H]12` [ITI-007, 1-(4-fluoro-phenyl)-4-((6bR,10aS)-3-methyl-2,3,6b,9,10,10a-hexahydro-1H,7H-pyrido[3′,4′:4,5]pyrrolo[1,2,3-de]quinoxalin-8-yl)-butan-1-one], in data set [3], the solubility result is listed as “poor solubility”. For the same compound, the “binding to receptors associated with cognitive and metabolic side effects” value in data set [4], in data set [5] and in data set [6] was “negligible binding” in each case.
Turning to `CN1CCN2c3c(cccc31)[C@@H]1CN(CCCC(=O)c3ccc(F)cc3)CC[C@@H]12` [cyclamate salt, 1-(4-fluoro-phenyl)-4-((6bR,10aS)-3-methyl-2,3,6b,9,10,10a-hexahydro-1H,7H-pyrido[3′,4′:4,5]pyrrolo[1,2,3-de]quinoxalin-8-yl)-butan-1-one], in data set [1], the “DVS total mass uptake” value was determined as 8% and the “hygroscopicity (assessment from DVS)” value was “somewhat hygroscopic”. Besides, the “DVS Hygroscopicity (%)” value in data set [1] (listed as FP-212 cyclamate salt) came out at 8%. Further, the stability entry in data set [2] was “stable”.
As to `CN1CCN2c3c(cccc31)[C@@H]1CN(CCCC(=O)c3ccc(F)cc3)CC[C@@H]12` [oxalate salt, 1-(4-fluoro-phenyl)-4-((6bR,10aS)-3-methyl-2,3,6b,9,10,10a-hexahydro-1H,7H-pyrido[3′,4′:4,5]pyrrolo[1,2,3-de]quinoxalin-8-yl)-butan-1-one], in data set [1], the “DVS total mass uptake” value is listed as 5%, the “hygroscopicity (assessment from DVS)” value is listed as “moderately hygroscopic” and the “DVS Hygroscopicity (%)” value is recorded as 5%. Besides, the stability result in data set [2] is listed as “stable”.
